# Experimental data reported in US10689376B2, “Substituted-3H-imidazo [4,5-c] pyridine and 1H-pyrrolo[2,3-c]pyridine series of novel ectonucleotide pyrophosphatase/phosphodiesterase-1 (ENPP1) and stimulator for interferon genes (STING) modulators as cancer immunotherapeutics” (Stingray Therapeutics, Inc., priority 2017, dated 2020).
# Molecular target: Recombinant Human ENPP-1 Protein (Homo sapiens (Human), UniProt P22413)
# Assay: ENPP1 Inhibition Assay
# Type: biochemical
# Details: substrate thymidine 5′-monophosphate p-nitrophenol ester, absorbance at 405 nm
# Protocol: 1. ENPP1 Inhibition Assay
# Materials: • Assay Buffer: 1 mM CaCl2, 0.2 mM ZnCl2, 50 mM Tris, pH 9.0 • Substrate: 8 mM Thymidine 5′-monophosphate p-nitrophenol ester sodium salt (Sigma Cat # T4510) • Enzyme: 5 ng/μL Recombinant Human ENPP-1 Protein (R&D Cat #6136-EN-010) DMSO • 96-well clear assay plates
# An eight point serial dilution of drugs was prepared in 10× in assay buffer with the final assay concentrations starting at 10 μM, 3 μM, 1 μM, 0.3 μM . . . 0 μM. A dilution of DMSO was included as a control. The assay plate was set up as follows with each well in duplicate: 81 μL assay buffer+10 μL ENPP1 inhibitor or DMSO+5 μL Substrate+4 μL Enzyme. Both the enzyme and substrate were added to opposite sides of the well to ensure that there was no interaction until all wells had both components. The plate was then centrifuged gently for 10 seconds, followed by an incubation at 37° C. for 45 minutes. The reaction was quantified by measuring absorbance at 405 nm using the Envision.
# IC50 values are determined using GraphPad Prism 5 software. The data were entered as an X-Y plot into the software as percent inhibition for each concentration of the drug. The concentration values of the drug were log transformed and the nonlinear regression was carried out using the “sigmoidal dose-response (variable slope)” option within the GraphPad software to model the data and calculate IC50 values. The IC50 values reported are the concentration of drug at which 50% inhibition was reached.
# Recombinant Human ENPP-1 Protein, sequence (P22413 whole entry): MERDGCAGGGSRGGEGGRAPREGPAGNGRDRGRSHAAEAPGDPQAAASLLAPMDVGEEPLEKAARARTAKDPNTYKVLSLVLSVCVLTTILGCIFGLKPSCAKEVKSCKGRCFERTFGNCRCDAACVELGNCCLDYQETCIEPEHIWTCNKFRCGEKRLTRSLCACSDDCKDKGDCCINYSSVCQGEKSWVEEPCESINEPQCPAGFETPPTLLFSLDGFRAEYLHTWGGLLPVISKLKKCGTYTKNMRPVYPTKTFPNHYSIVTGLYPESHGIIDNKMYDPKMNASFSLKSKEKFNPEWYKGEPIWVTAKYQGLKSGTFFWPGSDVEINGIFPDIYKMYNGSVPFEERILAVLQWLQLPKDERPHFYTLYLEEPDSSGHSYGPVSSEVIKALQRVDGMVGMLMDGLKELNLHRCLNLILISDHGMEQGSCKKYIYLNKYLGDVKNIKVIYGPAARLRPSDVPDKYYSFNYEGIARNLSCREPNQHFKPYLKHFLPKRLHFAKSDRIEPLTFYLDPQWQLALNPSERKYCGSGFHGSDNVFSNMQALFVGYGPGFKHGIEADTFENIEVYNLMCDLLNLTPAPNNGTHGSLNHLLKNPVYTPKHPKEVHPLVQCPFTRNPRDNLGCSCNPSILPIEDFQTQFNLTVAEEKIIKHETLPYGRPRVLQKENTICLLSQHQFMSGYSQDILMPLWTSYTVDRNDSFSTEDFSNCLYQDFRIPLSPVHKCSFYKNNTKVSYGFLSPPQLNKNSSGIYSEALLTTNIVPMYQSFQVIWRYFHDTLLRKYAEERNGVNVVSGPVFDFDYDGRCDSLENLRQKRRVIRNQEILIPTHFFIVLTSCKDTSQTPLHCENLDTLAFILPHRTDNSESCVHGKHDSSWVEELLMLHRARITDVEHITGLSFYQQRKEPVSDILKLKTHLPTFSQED
row,IC50,SMILES
1,50 µM,"Cc1cncc2[nH]c(SCC(=O)Nc3ccc4c(c3)OCO4)nc12 [Compound 10, N-(benzo[d][1,3]dioxol-5-yl)-2-((7-methyl-1H-imidazo[4,5-c]pyridin-2-yl)thio)acetamide]"
2,11.3 µM,COc1ccc(NC(=O)CSc2nc3cc(Cl)ncc3[nH]2)cc1OCC(F)(F)F [Compound 89]
3,0.667 µM,"COc1ccc(NC(=O)CSc2nc3cnc(Cl)c(C)c3[nH]2)cc1O [Compound 49, 2-((6-Chloro-7-methyl-1H-imidazo[4,5-c]pyridin-2-yl)thio)-N-(3-hydroxy-4-methoxyphenyl)acetamide]"
4,0.265 µM,"COc1ccc(NC(=O)CSc2nc3c(C)c(C#N)ncc3[nH]2)cc1OC [Compound 77, 2-((6-Cyano-7-methyl-3H-imidazo[4,5-c]pyridin-2-yl)thio)-N-(3,4-dimethoxyphenyl)acetamide]"
5,> 50 µM,"O=C(CSc1nc2cc(Cl)ncc2[nH]1)Nc1ccc2c(c1)OCO2 [Compound 7, N-(benzo[d][1,3]dioxol-5-yl)-2-((6-chloro-1H-imidazo[4,5-c]pyridin-2-yl)thio)acetamide]"
6,0.179 µM,"COc1ccc(NC(=O)CSc2nc3cc(C#N)ncc3[nH]2)cc1O [Compound 67, 2-((6-Cyano-3H-imidazo[4,5-c]pyridin-2-yl)thio)-N-(3-hydroxy-4-methoxyphenyl)acetamide]"
7,5.73 µM,"COc1cc2nc(NC(=O)CSc3nc4cc(Cl)ncc4[nH]3)sc2cc1OC [Compound 54, 2-((6-Chloro-3H-imidazo[4,5-c]pyridin-2-yl)thio)-N-(5,6-dimethoxybenzo[d]thiazol-2-yl)acetamide]"
8,3.29 µM,"COc1ccc(NC(=O)CSc2nc3cc(Cl)ncc3[nH]2)cn1 [Compound 72, 2-((6-chloro-3H-imidazo[4,5-c]pyridin-2-yl)thio)-N-(6-methoxypyridin-3-yl)acetamide]"
9,1.14 µM,"COc1ccc(NC(=O)CSc2nc3cnc(Cl)c(C)c3[nH]2)cc1OC [Compound 52, 2-((6-Chloro-7-methyl-1H-imidazo[4,5-c]pyridin-2-yl)thio)-N-(3,4-dimethoxyphenyl)acetamide]"
10,7.92 µM,"O=C(CSc1nc2cnc(Cl)cc2[nH]1)Nc1ccc(O)cc1 [Compound 33, 2-((6-chloro-1H-imidazo[4,5-c]pyridin-2-yl)thio)-N-(4-hydroxyphenyl)acetamide]"
11,6.52 µM,"Cc1c(C#N)ncc2[nH]c(SCC(=O)Nc3ccc(F)c(O)c3)nc12 [Compound 79, 2-((6-Cyano-7-methyl-3H-imidazo[4,5-c]pyridin-2-yl)thio)-N-(4-fluoro-3-hydroxyphenyl)acetamide]"
12,6.02 µM,"COc1ccc(NC(=O)CSc2nc3cc(Cl)ncc3[nH]2)cc1N [Compound 82, N-(3-Amino-4-methoxyphenyl)-2-((6-chloro-3H-imidazo[4,5-c]pyridin-2-yl)thio)acetamide]"
13,4.46 µM,"COc1ccc(NC(=O)CSc2nc3c(C)cncc3[nH]2)cc1OC [Compound 9, N-(3,4-dimethoxyphenyl)-2-((7-methyl-1H-imidazo[4,5-c]pyridin-2-yl)thio)acetamide]"
14,7.93 µM,"O=C(CSc1nc2cnc(Cl)cc2[nH]1)Nc1cccc(O)c1 [Compound 25, 2-((6-Chloro-1H-imidazo[4,5-c]pyridin-2-yl)thio)-N-(3-hydroxyphenyl)acetamide]"
15,2.06 µM,"COc1nc(NC(=O)CSc2nc3c(C)c(C#N)ncc3[nH]2)ccc1O [Compound 96, 2-((6-cyano-7-methyl-3H-imidazo[4,5-c]pyridin-2-yl)thio)-N-(5-hydroxy-6-methoxypyridin-2-yl)acetamide]"
16,8.37 µM,"COc1cc(NC(=O)CSc2nc3c(C)cncc3[nH]2)ccc1O [Compound 18, N-(4-hydroxy-3-methoxyphenyl)-2-((7-methyl-3H-imidazo[4,5-c]pyridin-2-yl)thio)acetamide]"
17,40.7 µM,"COc1ccc(NC(=O)CSc2nc3cnc(Cl)cc3[nH]2)cc1OC(F)(F)F [Compound 35, 2-((6-chloro-1H-imidazo[4,5-c]pyridin-2-yl)thio)-N-(4-methoxy-3-(trifluoromethoxy)phenyl)acetamide]"
18,0.216 µM,"N#Cc1cc2nc(SCC(=O)Nc3ccc(F)c(O)c3)[nH]c2cn1 [Compound 69, 2-((6-Cyano-3H-imidazo[4,5-c]pyridin-2-yl)thio)-N-(4-fluoro-3-hydroxyphenyl)acetamide]"

row,IC50,SMILES
1,33.6 µM,"O=C(CSc1nc2cc(Cl)ncc2[nH]1)Nc1ccc(OC(F)F)cc1 [Compound 40, 2-((6-Chloro-3H-imidazo[4,5-c]pyridin-2-yl)thio)-N-(4-(difluoromethoxy)phenyl)acetamide]"
2,0.266 µM,"COc1cnc(NC(=O)CSc2nc3cc(Cl)ncc3[nH]2)cc1OC [Compound 85, 2-((6-chloro-1H-imidazo[4,5-c]pyridin-2-yl)thio)-N-(4,5-dimethoxypyridin-2-yl)acetamide]"
3,2.29 µM,"COc1ccc(NC(=O)CSc2nc3c(C)cncc3[nH]2)cc1O [Compound 16, N-(3-hydroxy-4-methoxyphenyl)-2-((7-methyl-1H-imidazo[4,5-c]pyridin-2-yl)thio)acetamide]"
4,4.55 µM,"COc1ccc(NC(=O)CSc2nc3cc(Cl)ncc3[nH]2)cc1[N+](=O)[O-] [Compound 83, 2-((6-Chloro-3H-imidazo[4,5-c]pyridin-2-yl)thio)-N-(4-methoxy-3-nitrophenyl)acetamide]"
5,30.2 µM,"COc1ccc(NC(=O)CS(=O)(=O)c2nc3cnc(Cl)cc3[nH]2)cc1F [Compound 70, 2-((6-chloro-1H-imidazo[4,5-c]pyridin-2-yl)sulfonyl)-N-(3-fluoro-4-methoxyphenyl)acetamide]"
6,1.16 µM,"COc1cc(NC(=O)CSc2nc3cc(Cl)ncc3[nH]2)ccc1OC(F)F [Compound 29, 2-((6-Chloro-1H-imidazo[4,5-c]pyridin-2-yl)thio)-N-(4-(difluoromethoxy)-3-methoxyphenyl)acetamide]"
7,3.52 µM,"COc1ccc(NC(=O)C(C)Sc2nc3cnc(Cl)cc3[nH]2)cc1OC (centres unmarked) [Compound 14, 2-((6-Chloro-1H-imidazo[4,5-c]pyridin-2-yl)thio)-N-(3,4-dimethoxyphenyl)propanamide]"
8,11.3 µM,"COc1ccc(NC(=O)C(C)Sc2nc3cnc(C(F)(F)F)cc3[nH]2)cc1O (centres unmarked) [Compound 42, N-(3-Hydroxy-4-methoxyphenyl)-2-((6-(trifluoromethyl)-3H-imidazo[4,5-c]pyridin-2-yl)thio)propanamide]"
9,22.6 µM,"O=C(CSc1nc2cc(C(F)(F)F)ncc2[nH]1)Nc1ccc(OC(F)(F)F)c(O)c1 [Compound 61, N-(3-Hydroxy-4-(trifluoromethoxy)phenyl)-2-((6-(trifluoromethyl)-3H-imidazo[4,5-c]pyridin-2-yl)thio)acetamide]"
10,10.9 µM,"O=C(CSc1nc2cc(Cl)ncc2[nH]1)Nc1nc2ccccc2s1 [Compound 62, N-(Benzo[d]thiazol-2-yl)-2-((6-chloro-3H-imidazo[4,5-c]pyridin-2-yl)thio)acetamide]"
11,10.2 µM,"COc1c(F)cc(NC(=O)CSc2nc3cnc(C(F)(F)F)cc3[nH]2)cc1F [Compound 44, N-(3,5-Difluoro-4-methoxyphenyl)-2-((6-(trifluoromethyl)-3H-imidazo[4,5-c]pyridin-2-yl)thio)acetamide]"
12,0.58 µM,"COc1ccc(NC(=O)CSc2nc3cc(Cl)ncc3[nH]2)cc1OC [Compound 3, 2-((6-Chloro-3H-imidazo[4,5-c]pyridin-2-yl)thio)-N-(3,4-dimethoxyphenyl)acetamide]"
13,0.224 µM,"COc1ccc(NC(=O)CSc2nc3c(C)c(C#N)ncc3[nH]2)cc1F [Compound 93, 2-((6-Cyano-7-methyl-3H-imidazo[4,5-c]pyridin-2-yl)thio)-N-(3-fluoro-4-methoxyphenyl)acetamide]"
14,5.63 µM,"COc1ccc(NC(=O)CSc2nc3cnc(Cl)c(C)c3[nH]2)cc1F [Compound 50, 2-((6-Chloro-7-methyl-1H-imidazo[4,5-c]pyridin-2-yl)thio)-N-(3-fluoro-4-methoxyphenyl)acetamide]"
15,1.98 µM,"COc1ccc(NC(=O)CSc2nc3cc(Cl)ncc3[nH]2)nc1OC [Compound 87, 2-((6-chloro-1H-imidazo[4,5-c]pyridin-2-yl)thio)-N-(5,6-dimethoxypyridin-2-yl)acetamide]"
16,1.27 µM,"Cc1c(Cl)ncc2nc(SCC(=O)Nc3ccc(F)c(O)c3)[nH]c12 [Compound 51, 2-((6-Chloro-7-methyl-1H-imidazo[4,5-c]pyridin-2-yl)thio)-N-(4-fluoro-3-hydroxyphenyl)acetamide]"
17,0.4 µM,"COc1ccc(NC(=O)CSc2nc3cnc(Cl)cc3[nH]2)cc1F [Compound 27, 2-((6-Chloro-1H-imidazo[4,5-c]pyridin-2-yl)thio)-N-(3-fluoro-4-methoxyphenyl)acetamide]"
